Results published in PubChem BioAssay AID1845211 (Molecular Pharmacology Branch, DTP, NCI, 2023).

System: NCI-H322M multicellular tumor spheroids, viability (% test/control)
Test: Anticancer human tumor NCI-H322M cell line growth inhibition;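 as to viability, T/C: spheroids exposed to compound for seven days before readout; 100% = DMSO vehicle control wells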
Conditions: for IC50: curve of first compound; for viability, T/C: stronger effect = lower value
Summary of the method: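 Complex tumor spheroids combined malignant cells with endothelial cells and mesenchymal stem cells. DNA-damaging drugs and DNA repair inhibitors were tested alone and in combination, at half-log dilutions down from clinical Cmax (top 10 microM if Cmax unknown), 0.25% DMSO final.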

[1] = second compound 0.003 µM, first compound 0.0316 µM
[2] = second compound 0.003 µM, first compound 0.1 µM
[3] = second compound 0.003 µM, first compound 0.316 µM
[4] = second compound 0.003 µM, first compound 1 µM
[5] = second compound 0.003 µM, first compound 3.16 µM
[6] = second compound 0.003 µM, first compound 10 µM
[7] = second compound 0.00949 µM, first compound 0.0316 µM
[8] = second compound 0.00949 µM, first compound 0.1 µM
[9] = second compound 0.00949 µM, first compound 0.316 µM
[10] = second compound 0.00949 µM, first compound 1 µM
[11] = second compound 0.00949 µM, first compound 3.16 µM
[12] = second compound 0.00949 µM, first compound 10 µM
[13] = second compound 0.03 µM, first compound 0.0316 µM
[14] = second compound 0.03 µM, first compound 0.1 µM
[15] = second compound 0.03 µM, first compound 0.316 µM
[16] = second compound 0.03 µM, first compound 1 µM
[17] = second compound 0.03 µM, first compound 3.16 µM
[18] = second compound 0.03 µM, first compound 10 µM
[19] = second compound 0.0949 µM, first compound 0.0316 µM
[20] = second compound 0.0949 µM, first compound 0.1 µM
[21] = second compound 0.0949 µM, first compound 0.316 µM
[22] = second compound 0.0949 µM, first compound 1 µM
[23] = second compound 0.0949 µM, first compound 3.16 µM
[24] = second compound 0.0949 µM, first compound 10 µM
[25] = second compound 0.3 µM, first compound 0.0316 µM
[26] = second compound 0.3 µM, first compound 0.1 µM
[27] = second compound 0.3 µM, first compound 0.316 µM
[28] = second compound 0.3 µM, first compound 1 µM
[29] = second compound 0.3 µM, first compound 3.16 µM
[30] = second compound 0.3 µM, first compound 10 µM
[31] = second compound 30 pM, first compound 0.00949 µM
[32] = second compound 30 pM, first compound 0.03 µM
[33] = second compound 30 pM, first compound 0.0949 µM
[34] = second compound 30 pM, first compound 0.3 µM
[35] = second compound 30 pM, first compound 0.949 µM
[36] = second compound 30 pM, first compound 3 µM
[37] = second compound 94.9 pM, first compound 0.00949 µM
[38] = second compound 94.9 pM, first compound 0.03 µM
[39] = second compound 94.9 pM, first compound 0.0949 µM
[40] = second compound 94.9 pM, first compound 0.3 µM
[41] = second compound 94.9 pM, first compound 0.949 µM
[42] = second compound 94.9 pM, first compound 3 µM
[43] = second compound 0.0003 µM, first compound 0.00949 µM
[44] = second compound 0.0003 µM, first compound 0.03 µM
[45] = second compound 0.0003 µM, first compound 0.0949 µM
[46] = second compound 0.0003 µM, first compound 0.3 µM
[47] = second compound 0.0003 µM, first compound 0.949 µM
[48] = second compound 0.0003 µM, first compound 3 µM
[49] = second compound 0.000949 µM, first compound 0.00949 µM
[50] = second compound 0.000949 µM, first compound 0.03 µM
[51] = second compound 0.000949 µM, first compound 0.0949 µM
[52] = second compound 0.000949 µM, first compound 0.3 µM
[53] = second compound 0.000949 µM, first compound 0.949 µM
[54] = second compound 0.000949 µM, first compound 3 µM
[55] = second compound 0.003 µM, first compound 0.00949 µM
[56] = second compound 0.003 µM, first compound 0.03 µM
[57] = second compound 0.003 µM, first compound 0.0949 µM
[58] = second compound 0.003 µM, first compound 0.3 µM
[59] = second compound 0.003 µM, first compound 0.949 µM
[60] = second compound 0.003 µM, first compound 3 µM

Structure (SMILES): CC(C)n1c(=O)n(C)c2cnc3cc(F)c(-c4ccc(OCCCN5CCCCC5)nc4)cc3c21 + CC[C@@]1(O)C(=O)OCc2c1cc1n(c2=O)Cc2cc3c(CN(C)C)c(O)ccc3nc2-1
- IC50 (second compound 0.003 µM): > 10000 nM
- IC50 (second compound 0.00949 µM): > 10000 nM
- IC50 (second compound 0.03 µM): > 10000 nM
- IC50 (second compound 0.0949 µM): > 10000 nM
- IC50 (second compound 0.3 µM): > 10000 nM
- viability, T/C [1]: 73.3%
- viability, T/C [2]: 81.4%
- viability, T/C [3]: 80%
- viability, T/C [4]: 75.9%
- viability, T/C [5]: 77.4%
- viability, T/C [6]: 73.2%
- viability, T/C [7]: 73.2%
- viability, T/C [8]: 72.8%
- viability, T/C [9]: 77.3%
- viability, T/C [10]: 75.3%
- viability, T/C [11]: 85.1%
- viability, T/C [12]: 71.4%
- viability, T/C [13]: 67.2%
- viability, T/C [14]: 73.8%
- viability, T/C [15]: 65.3%
- viability, T/C [16]: 72.5%
- viability, T/C [17]: 73%
- viability, T/C [18]: 70.2%
- viability, T/C [19]: 58.8%
- viability, T/C [20]: 56.5%
- viability, T/C [21]: 69.3%
- viability, T/C [22]: 65.2%
- viability, T/C [23]: 67.2%
- viability, T/C [24]: 68.6%
- viability, T/C [25]: 53.3%
- viability, T/C [26]: 50.3%
- viability, T/C [27]: 54.7%
- viability, T/C [28]: 62.6%
- viability, T/C [29]: 61.6%
- viability, T/C [30]: 55%

Structure (SMILES): COc1ccc([C@@H](O)c2cc(-c3ncnc4cc(N5CCOCC5)ccc34)c(F)cc2Cl)nn1 + CC[C@@]1(O)C(=O)OCc2c1cc1n(c2=O)Cc2cc3c(CN(C)C)c(O)ccc3nc2-1
- IC50 (second compound 0.003 µM): 1670 nM
- IC50 (second compound 0.00949 µM): 1360 nM
- IC50 (second compound 0.03 µM): 1050 nM
- IC50 (second compound 0.0949 µM): 721 nM
- IC50 (second compound 0.3 µM): 384 nM
- viability, T/C [1]: 79.4%
- viability, T/C [2]: 88.7%
- viability, T/C [3]: 91.2%
- viability, T/C [4]: 59.2%
- viability, T/C [5]: 45%
- viability, T/C [6]: 32.2%
- viability, T/C [7]: 80.8%
- viability, T/C [8]: 75.8%
- viability, T/C [9]: 79.7%
- viability, T/C [10]: 52.5%
- viability, T/C [11]: 45.4%
- viability, T/C [12]: 32.2%
- viability, T/C [13]: 72.5%
- viability, T/C [14]: 80.1%
- viability, T/C [15]: 61.8%
- viability, T/C [16]: 51.8%
- viability, T/C [17]: 37.2%
- viability, T/C [18]: 30.2%
- viability, T/C [19]: 76.5%
- viability, T/C [20]: 61.7%
- viability, T/C [21]: 61.9%
- viability, T/C [22]: 46.3%
- viability, T/C [23]: 36.1%
- viability, T/C [24]: 29.8%
- viability, T/C [25]: 56.4%
- viability, T/C [26]: 54.4%
- viability, T/C [27]: 52.7%
- viability, T/C [28]: 37.6%
- viability, T/C [29]: 26%
- viability, T/C [30]: 24.4%

Structure (SMILES): CNCc1ccc(-c2cc(-c3nc(-c4ccc(S(=O)(=O)C(C)C)cc4)cnc3N)on2)cc1 + COc1cc2c(cc1O)CCNC21CSC2c3c(OC(C)=O)c(C)c4c(c3C(COC1=O)N1C(O)C3Cc5cc(C)c(OC)c(O)c5C(C21)N3C)OCO4
- IC50 (second compound 30 pM): > 3000 nM
- IC50 (second compound 94.9 pM): > 3000 nM
- IC50 (second compound 0.0003 µM): > 3000 nM
- IC50 (second compound 0.000949 µM): 479 nM
- IC50 (second compound 0.003 µM): < 9.49 nM
- viability, T/C [31]: 98.7%
- viability, T/C [32]: 102%
- viability, T/C [33]: 82.5%
- viability, T/C [34]: 76.4%
- viability, T/C [35]: 69.5%
- viability, T/C [36]: 70%
- viability, T/C [37]: 95.5%
- viability, T/C [38]: 80.2%
- viability, T/C [39]: 85.6%
- viability, T/C [40]: 73.4%
- viability, T/C [41]: 66.4%
- viability, T/C [42]: 66.1%
- viability, T/C [43]: 85.7%
- viability, T/C [44]: 85.8%
- viability, T/C [45]: 77.8%
- viability, T/C [46]: 60.5%
- viability, T/C [47]: 59.4%
- viability, T/C [48]: 59.2%
- viability, T/C [49]: 81.9%
- viability, T/C [50]: 76.9%
- viability, T/C [51]: 71.4%
- viability, T/C [52]: 51.9%
- viability, T/C [53]: 47.3%
- viability, T/C [54]: 44.4%
- viability, T/C [55]: 9.27%
- viability, T/C [56]: 10.9%
- viability, T/C [57]: 10.1%
- viability, T/C [58]: 9.72%
- viability, T/C [59]: 12.4%
- viability, T/C [60]: 7.67%

Structure (SMILES): Cn1ncnc1[C@H]1c2n[nH]c(=O)c3cc(F)cc(c23)N[C@@H]1c1ccc(F)cc1 + COc1cc2c(cc1O)CCNC21CSC2c3c(OC(C)=O)c(C)c4c(c3C(COC1=O)N1C(O)C3Cc5cc(C)c(OC)c(O)c5C(C21)N3C)OCO4
- IC50 (second compound 30 pM): > 3000 nM
- IC50 (second compound 94.9 pM): > 3000 nM
- IC50 (second compound 0.0003 µM): > 3000 nM
- IC50 (second compound 0.000949 µM): 1520 nM
- IC50 (second compound 0.003 µM): < 9.49 nM
- viability, T/C [31]: 78.7%
- viability, T/C [32]: 89.2%
- viability, T/C [33]: 68.8%
- viability, T/C [34]: 82%
- viability, T/C [35]: 75.2%
- viability, T/C [36]: 65.6%
- viability, T/C [37]: 71.4%
- viability, T/C [38]: 78.2%
- viability, T/C [39]: 78.8%
- viability, T/C [40]: 70.5%
- viability, T/C [41]: 68.2%
- viability, T/C [42]: 59.5%
- viability, T/C [43]: 88.8%
- viability, T/C [44]: 85%
- viability, T/C [45]: 82.9%
- viability, T/C [46]: 77.8%
- viability, T/C [47]: 67.3%
- viability, T/C [48]: 62.9%
- viability, T/C [49]: 73.6%
- viability, T/C [50]: 68.6%
- viability, T/C [51]: 72.5%
- viability, T/C [52]: 64.4%
- viability, T/C [53]: 56.9%
- viability, T/C [54]: 40.3%
- viability, T/C [55]: 6.87%
- viability, T/C [56]: 9.48%
- viability, T/C [57]: 6.81%
- viability, T/C [58]: 3.83%
- viability, T/C [59]: 10.6%
- viability, T/C [60]: 1.7%

Structure (SMILES): O=C(c1cc(Cc2n[nH]c(=O)c3ccccc23)ccc1F)N1CCN(C(=O)C2CC2)CC1 + COc1cc2c(cc1O)CCNC21CSC2c3c(OC(C)=O)c(C)c4c(c3C(COC1=O)N1C(O)C3Cc5cc(C)c(OC)c(O)c5C(C21)N3C)OCO4
- IC50 (second compound 30 pM): > 30000 nM
- IC50 (second compound 94.9 pM): > 30000 nM
- IC50 (second compound 0.0003 µM): > 30000 nM
- IC50 (second compound 0.000949 µM): 20800 nM
- IC50 (second compound 0.003 µM): < 94.9 nM
- viability, T/C [33]: 81.3%
- viability, T/C [34]: 84.3%
- viability, T/C [35]: 90.6%
- viability, T/C [36]: 79.8%
- viability, T/C (second compound 30 pM, first compound 9.49 µM): 85.8%
- viability, T/C (second compound 30 pM, first compound 30 µM): 110%
- viability, T/C [39]: 90.7%
- viability, T/C [40]: 84.9%
- viability, T/C [41]: 88.5%
- viability, T/C [42]: 87.5%
- viability, T/C (second compound 94.9 pM, first compound 9.49 µM): 79.4%
- viability, T/C (second compound 94.9 pM, first compound 30 µM): 98.5%
- viability, T/C [45]: 99.6%
- viability, T/C [46]: 84.7%
- viability, T/C [47]: 79.9%
- viability, T/C [48]: 83.3%
- viability, T/C (second compound 0.0003 µM, first compound 9.49 µM): 79.8%
- viability, T/C (second compound 0.0003 µM, first compound 30 µM): 95.9%
- viability, T/C [51]: 83.4%
- viability, T/C [52]: 77.7%
- viability, T/C [53]: 69.5%
- viability, T/C [54]: 72.7%
- viability, T/C (second compound 0.000949 µM, first compound 9.49 µM): 67.6%
- viability, T/C (second compound 0.000949 µM, first compound 30 µM): 42.2%
- viability, T/C [57]: 11.3%
- viability, T/C [58]: 14.1%
- viability, T/C [59]: 8.06%
- viability, T/C [60]: 7.88%
- viability, T/C (second compound 0.003 µM, first compound 9.49 µM): 4.62%
- viability, T/C (second compound 0.003 µM, first compound 30 µM): 1.81%
